Patent publication US11629171B2, “Beta-hairpin peptidomimetics” (POLYPHOR AG, priority 2017, dated 2023)
Converted amounts (≈) assume the structure as drawn. Where a SMILES comes first, the peptide text is derived from it. Bridges are numbered along the chain shown (N, C = ends). Roman numbers before positions name the chains, in order. [ ]: non-standard residue; d: D form. The star is where a group is joined. Tle = CC(C)(C)[C@H](N)C(=O)O; dDab = NCC[C@@H](N)C(=O)O; Dab = NCC[C@H](N)C(=O)O; Dap = NC[C@H](N)C(=O)O; Propionyl = CCC(=O)*

Experiments:
Type in all cases: cell-based
[1] = test system: human red blood cells (hRBC); test: Hemolysis; conditions: red cells of human, 1 h, 200
How it was run: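 Washed fresh human RBC (20% v/v) incubated with peptide at 200 μg/mL for 1 h at 37° C with shaking. Supernatant OD540 measured after dilution, blank corrected; percent hemolysis = OD540 peptide / OD540 of 2% Triton X-100 lysis × 100, PBS with 10% water as 0%.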

[2] = test system: Escherichia coli 926415; conditions: 926415
How it was run: (§1)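 Standard CLSI microdilution testing: bacterial suspensions standardized against 0.5 McFarland to about 10^6 CFU/mL in MH-II broth meet serially halved peptide concentrations in broth containing 0.002% polysorbate 80; incubation lasts 18-20 h at 35° C before the MIC is scored.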

[3] = test system: Enterobacter cloacae 848840; conditions: 848840
How it was run: as §1

[4] = test system: Acinetobacter baumannii DSM 30008; conditions: DSM 30008
How it was run: as §1

[5] = test system: Acinetobacter baumannii 872842; conditions: 872842
How it was run: as §1

[6] = test system: Klebsiella pneumoniae 968733; conditions: 968733
How it was run: as §1

[7] = test system: Pseudomonas aeruginosa ATCC 27853; conditions: ATCC 27853
How it was run: as §1

[8] = test system: Escherichia coli ATCC 25922; conditions: ATCC 25922
How it was run: as §1

[9] = test system: Klebsiella pneumoniae SSI #3010; conditions: SSI #3010
How it was run: as §1

Row | SMILES | Hemolysis at 200 μg/mL [1] | MIC [2] | MIC [3] | MIC [4] | MIC [5] | MIC [6] | MIC [7] | MIC [8] | MIC [9]
1 | CCC(=O)N[C@H](C(=O)N[C@H]1CSSC[C@@H](C(=O)N[C@@H](CO)C(N)=O)NC(=O)[C@H](C(C)(C)C)NC(=O)[C@H](CO)NC(=O)[C@H](Cc2c[nH]c3ccccc23)NC(=O)[C@H](CO)NC(=O)[C@@H](CCN)NC(=O)[C@H](CCC(=O)N[C@@H](CCN)C(=O)N[C@H](C(=O)N[C@@H](CN)C(=O)N[C@H]2CCNC(=O)[C@H]([C@@H](C)O)NC(=O)[C@H](CCN)NC(=O)[C@H](CCN)NC(=O)[C@H](CC(C)C)NC(=O)[C@@H](CC(C)C)NC(=O)[C@H](CCN)NC2=O)[C@@H](C)O)NC(=O)[C@H](CCN)NC(=O)[C@H](Cc2ccc(O)cc2)NC1=O)C(C)C [Ex. 144] (I: Propionyl-VCY[Dab]E[dDab]SWS[Tle]CS-NH2 / II: [Dab]T[Dap][Dab][Dab][dL]L[Dab][Dab]T; disulfide I:2-I:11; amide I:5-II:N; lactam II:4-II:C) | <1% | 0.0625 µg/mL (≈ 0.0258 µM) | 0.125 µg/mL (≈ 0.0515 µM) | 0.0625 µg/mL (≈ 0.0258 µM) | 0.0625 µg/mL (≈ 0.0258 µM) | 0.0625 µg/mL (≈ 0.0258 µM) | 0.125 µg/mL (≈ 0.0515 µM) | 0.03125 µg/mL (≈ 0.0129 µM) | 0.0625 µg/mL (≈ 0.0258 µM)
2 | CNC(=O)[C@H](CO)NC(=O)[C@@H]1CSSC[C@H](NC(=O)[C@@H](NC(C)=O)C(C)C)C(=O)N[C@@H](Cc2ccc(O)cc2)C(=O)N[C@@H](CCN)C(=O)N[C@@H](CCC(=O)N[C@@H](CCN)C(=O)N[C@H](C(=O)N[C@@H](CN)C(=O)N[C@H]2CCNC(=O)[C@H]([C@@H](C)O)NC(=O)[C@H](CCN)NC(=O)[C@H](CCN)NC(=O)[C@H](CC(C)C)NC(=O)[C@@H](CC(C)C)NC(=O)[C@H](CCN)NC2=O)[C@@H](C)O)C(=O)N[C@H](CCN)C(=O)N[C@@H](CO)C(=O)N[C@@H](Cc2c[nH]c3ccccc23)C(=O)N[C@@H](CO)C(=O)N[C@@H](C(C)(C)C)C(=O)N1 [Ex. 145] (I: Ac-VCY[Dab]E[dDab]SWS[Tle]CS-NHMe / II: [Dab]T[Dap][Dab][Dab][dL]L[Dab][Dab]T; disulfide I:2-I:11; amide I:5-II:N; lactam II:4-II:C) | 2% | 0.0625 µg/mL (≈ 0.0258 µM) | 0.125 µg/mL (≈ 0.0515 µM) | 0.0625 µg/mL (≈ 0.0258 µM) | 0.03125 µg/mL (≈ 0.0129 µM) | 0.125 µg/mL (≈ 0.0515 µM) | 0.125 µg/mL (≈ 0.0515 µM) | 0.0625 µg/mL (≈ 0.0258 µM) | 0.125 µg/mL (≈ 0.0515 µM)
3 | CC(=O)N[C@H](C(=O)N[C@H]1CCNC(=O)CC[C@@H](C(=O)N[C@@H](CO)C(N)=O)NC(=O)[C@H](C(C)(C)C)NC(=O)[C@H](CO)NC(=O)[C@H](Cc2c[nH]c3ccccc23)NC(=O)[C@H](CO)NC(=O)[C@@H](CCN)NC(=O)[C@H](CCC(=O)N[C@@H](CCN)C(=O)N[C@H](C(=O)N[C@@H](CN)C(=O)N[C@H]2CCNC(=O)[C@H]([C@@H](C)O)NC(=O)[C@H](CCN)NC(=O)[C@H](CCN)NC(=O)[C@H](CC(C)C)NC(=O)[C@@H](CC(C)C)NC(=O)[C@H](CCN)NC2=O)[C@@H](C)O)NC(=O)[C@H](CN)NC(=O)[C@H](Cc2ccc(O)cc2)NC1=O)C(C)C [Ex. 146] (I: Ac-V[Dab]Y[Dap]E[dDab]SWS[Tle]ES-NH2 / II: [Dab]T[Dap][Dab][Dab][dL]L[Dab][Dab]T; lactam I:2-I:11, II:4-II:C; amide I:5-II:N) | <1% | 0.25 µg/mL (≈ 0.104 µM) | 0.25 µg/mL (≈ 0.104 µM) | 0.0625 µg/mL (≈ 0.026 µM) | 0.125 µg/mL (≈ 0.052 µM) | 0.25 µg/mL (≈ 0.104 µM) | 0.125 µg/mL (≈ 0.052 µM) | 0.0625 µg/mL (≈ 0.026 µM) | 0.0625 µg/mL (≈ 0.026 µM)
4 | CC(=O)N[C@H](C(=O)N[C@H]1CCNC(=O)CC[C@@H](C(=O)N[C@@H](CO)C(N)=O)NC(=O)[C@H](C(C)C)NC(=O)[C@H](CO)NC(=O)[C@H](Cc2c[nH]c3ccccc23)NC(=O)[C@H](CO)NC(=O)[C@@H](CCN)NC(=O)[C@H](CCC(=O)N[C@@H](CCN)C(=O)N[C@H](C(=O)N[C@@H](CN)C(=O)N[C@H]2CCNC(=O)[C@H]([C@@H](C)O)NC(=O)[C@H](CCN)NC(=O)[C@H](CCN)NC(=O)[C@H](CC(C)C)NC(=O)[C@@H](CC(C)C)NC(=O)[C@H](CCN)NC2=O)[C@@H](C)O)NC(=O)[C@H](CN)NC(=O)[C@H](Cc2ccc(O)cc2)NC1=O)C(C)C [Ex. 147] (I: Ac-V[Dab]Y[Dap]E[dDab]SWSVES-NH2 / II: [Dab]T[Dap][Dab][Dab][dL]L[Dab][Dab]T; lactam I:2-I:11, II:4-II:C; amide I:5-II:N) | <1% | 0.25 µg/mL (≈ 0.105 µM) | 0.125 µg/mL (≈ 0.0523 µM) | 0.0625 µg/mL (≈ 0.0261 µM) | 0.25 µg/mL (≈ 0.105 µM) | 0.5 µg/mL (≈ 0.209 µM) | 0.125 µg/mL (≈ 0.0523 µM) | 0.0625 µg/mL (≈ 0.0261 µM) | 0.0625 µg/mL (≈ 0.0261 µM)
5 | CC(=O)N[C@H](C(=O)N[C@H]1CCNC(=O)C[C@@H](C(=O)N[C@@H](CO)C(N)=O)NC(=O)[C@H](C(C)(C)C)NC(=O)[C@H](CO)NC(=O)[C@H](Cc2c[nH]c3ccccc23)NC(=O)[C@H](CO)NC(=O)[C@@H](CCN)NC(=O)[C@H](CCC(=O)N[C@@H](CCN)C(=O)N[C@H](C(=O)N[C@@H](CN)C(=O)N[C@H]2CCNC(=O)[C@H]([C@@H](C)O)NC(=O)[C@H](CCN)NC(=O)[C@H](CCN)NC(=O)[C@H](CC(C)C)NC(=O)[C@@H](CC(C)C)NC(=O)[C@H](CCN)NC2=O)[C@@H](C)O)NC(=O)[C@H](CN)NC(=O)[C@H](Cc2ccc(O)cc2)NC1=O)C(C)C [Ex. 148] (I: Ac-V[Dab]Y[Dap]E[dDab]SWS[Tle]DS-NH2 / II: [Dab]T[Dap][Dab][Dab][dL]L[Dab][Dab]T; lactam I:2-I:11, II:4-II:C; amide I:5-II:N) | <1% | 0.125 µg/mL (≈ 0.0523 µM) | 0.0625 µg/mL (≈ 0.0261 µM) | 0.03125 µg/mL (≈ 0.0131 µM) | 0.0625 µg/mL (≈ 0.0261 µM) | 0.25 µg/mL (≈ 0.105 µM) | 0.125 µg/mL (≈ 0.0523 µM) | 0.03125 µg/mL (≈ 0.0131 µM) | 0.0625 µg/mL (≈ 0.0261 µM)
6 | CC(=O)N[C@H](C(=O)N[C@H]1CCNC(=O)C[C@@H](C(=O)N[C@@H](CO)C(N)=O)NC(=O)[C@H](C(C)C)NC(=O)[C@H](CO)NC(=O)[C@H](Cc2c[nH]c3ccccc23)NC(=O)[C@H](CO)NC(=O)[C@@H](CCN)NC(=O)[C@H](CCC(=O)N[C@@H](CCN)C(=O)N[C@H](C(=O)N[C@@H](CN)C(=O)N[C@H]2CCNC(=O)[C@H]([C@@H](C)O)NC(=O)[C@H](CCN)NC(=O)[C@H](CCN)NC(=O)[C@H](CC(C)C)NC(=O)[C@@H](CC(C)C)NC(=O)[C@H](CCN)NC2=O)[C@@H](C)O)NC(=O)[C@H](CN)NC(=O)[C@H](Cc2ccc(O)cc2)NC1=O)C(C)C [Ex. 149] (I: Ac-V[Dab]Y[Dap]E[dDab]SWSVDS-NH2 / II: [Dab]T[Dap][Dab][Dab][dL]L[Dab][Dab]T; lactam I:2-I:11, II:4-II:C; amide I:5-II:N) | <1% | 0.25 µg/mL (≈ 0.105 µM) | 0.125 µg/mL (≈ 0.0526 µM) | 0.0625 µg/mL (≈ 0.0263 µM) | 0.125 µg/mL (≈ 0.0526 µM) | 0.5 µg/mL (≈ 0.21 µM) | 0.125 µg/mL (≈ 0.0526 µM) | 0.0625 µg/mL (≈ 0.0263 µM) | 0.125 µg/mL (≈ 0.0526 µM)
7 | CC(=O)N[C@H](C(=O)N[C@H]1CSSC[C@@H](C(=O)N[C@@H](CO)C(N)=O)NC(=O)[C@H](C(C)C)NC(=O)[C@H](CCC(=O)O)NC(=O)[C@H](Cc2c[nH]c3ccccc23)NC(=O)[C@H](CO)NC(=O)[C@@H](CCN)NC(=O)[C@H](CCC(=O)N[C@@H](CCN)C(=O)N[C@H](C(=O)N[C@@H](CN)C(=O)N[C@H]2CCNC(=O)[C@H]([C@@H](C)O)NC(=O)[C@H](CCN)NC(=O)[C@H](CCN)NC(=O)[C@H](CC(C)C)NC(=O)[C@@H](CC(C)C)NC(=O)[C@H](CCN)NC2=O)[C@@H](C)O)NC(=O)[C@H](CCCCN)NC(=O)[C@H](Cc2ccc(O)cc2)NC1=O)C(C)C [Ex. 151] (I: Ac-VCYKE[dDab]SWEVCS-NH2 / II: [Dab]T[Dap][Dab][Dab][dL]L[Dab][Dab]T; disulfide I:2-I:11; amide I:5-II:N; lactam II:4-II:C) | <1% | 0.5 µg/mL (≈ 0.203 µM) | 0.125 µg/mL (≈ 0.0506 µM) | 0.0625 µg/mL (≈ 0.0253 µM) | 0.25 µg/mL (≈ 0.101 µM) | 1 µg/mL (≈ 0.405 µM) | 0.125 µg/mL (≈ 0.0506 µM) | 0.03125 µg/mL (≈ 0.0127 µM) | 0.0625 µg/mL (≈ 0.0253 µM)
8 | CC(=O)N[C@H](C(=O)N[C@H]1CSSC[C@@H](C(=O)N[C@@H](CO)C(N)=O)NC(=O)[C@H](C(C)C)NC(=O)[C@H](CC(=O)O)NC(=O)[C@H](Cc2c[nH]c3ccccc23)NC(=O)[C@H](CO)NC(=O)[C@@H](CCN)NC(=O)[C@H](CCC(=O)N[C@@H](CCN)C(=O)N[C@H](C(=O)N[C@@H](CN)C(=O)N[C@H]2CCNC(=O)[C@H]([C@@H](C)O)NC(=O)[C@H](CCN)NC(=O)[C@H](CCN)NC(=O)[C@H](CC(C)C)NC(=O)[C@@H](CC(C)C)NC(=O)[C@H](CCN)NC2=O)[C@@H](C)O)NC(=O)[C@H](CCCCN)NC(=O)[C@H](Cc2ccc(O)cc2)NC1=O)C(C)C [Ex. 152] (I: Ac-VCYKE[dDab]SWDVCS-NH2 / II: [Dab]T[Dap][Dab][Dab][dL]L[Dab][Dab]T; disulfide I:2-I:11; amide I:5-II:N; lactam II:4-II:C) | <1% | 2 µg/mL (≈ 0.815 µM) | 0.5 µg/mL (≈ 0.204 µM) | 0.125 µg/mL (≈ 0.0509 µM) | 1 µg/mL (≈ 0.407 µM) | 8 µg/mL (≈ 3.26 µM) | 0.25 µg/mL (≈ 0.102 µM) | 0.125 µg/mL (≈ 0.0509 µM) | 0.25 µg/mL (≈ 0.102 µM)
